Laboratory results reported in patent US20230345975A1, “COMPOSITIONS AND METHODS OF PRESERVING MEAT SUBSTITUTES” (Wisconsin Alumni Research Foundation, priority 2016, published 2023).
“Also recorded” adds a separate entry of the source. Read-outs that look alike come from different tables or passages of the source. Each block holds one compound with its values, some of them ahead of it.

Columns and labels:
[1] = target: plant Hb (soybean hemoglobin; Lba) in meat analog (Glycine max, UniProt P02238); experiment: Color stability of meat analog during refrigerated light display
Chain of plant Hb (soybean hemoglobin; Lba) in meat analog (P02238 whole entry): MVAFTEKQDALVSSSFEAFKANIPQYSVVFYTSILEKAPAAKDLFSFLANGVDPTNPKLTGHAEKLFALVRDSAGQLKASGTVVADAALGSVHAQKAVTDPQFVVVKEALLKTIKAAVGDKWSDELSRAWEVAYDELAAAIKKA
Procedure: FIG. 1—Color stability of meat analog. Treatments: Water (W); 2.5 mmol/kg tissue Niacin (NA). Packaging: High oxygen package (80% O2, 20% CO2). Water content: 3% water capacity. Days under light (˜300 ft): 4 days under light display at 1-3° C.
FIG. 3—Effect of high oxygen during packaging. […] W-water added. All samples were stored at 1-3° C. during light display (300 foot candles).
The niacin can also be added to the solid plant protein/plant fat matrix already containing the added plant Hb. There is approximately 150 μmol of plant heme/kg meat analog. Therefore, a targeted final concentration of niacin would be 150 μmol/kg meat analog, which is equivalent to 18.5 mg niacin per kg meat analog.
Niacin is added to the meat analog already containing the plant Hb (soybean hemoglobin; Lba) and the product is stored under lights in high oxygen packaging during 4 days of refrigerated storage.

[2] = cited from earlier work
soybean Hb (Lba) = soybean Hb (Lba) (Glycine max, UniProt P02238); experiment: Redness (a-value) of Lba solutions after exposure to 35 fc of light for 4 days; settings: for Redness (a-value) at day 4: 35 fc light, 4 days, main effect over pH
Chain of soybean Hb (Lba) (P02238 whole entry): as above
Procedure: FIG. 2—Effect of pH and different molar ratios of niacin to soybean Hb on the redness of Lba solutions. Measurement after exposure to 35 fc of light for 4 days
100 grams of meat analog containing a 3:1 dose of niacin would provide 5.9 mg niacin; a 6:1 dose would provide 11.8 mg niacin.

[3] = cited from earlier work; remark: listed apart in the source

Compound: O=C1O[C@H]([C@@H](O)CO)C(O)=C1O [Ascorbic acid]
color stabilization of meat analog ([1]; high oxygen packaging 80% O2/20% CO2, light display 300 foot candles, 1-3° C.): did not stabilize color

Compound: N[C@@H](Cc1c[nH]cn1)C(=O)O [histidine, Histidine]
pKa ([2]; buffer): ~6
pKa of the conjugate acid (protonated form) of the imidazole side chain [2]: approximately 6.0

time for which meat analog maintained color ([1]; storage entirely in 80% O2/20% CO2, light display 300 foot candles, 1-3° C.): ≤ 11 days
ability to stabilize color in meat analog after change of packaging ([1]; transferred from 80% O2/20% CO2 at day 4 to air-permeable overwrap, assessed at day 8): lost
stabilization of red color of Lba solution versus control with no niacin (soybean Hb (Lba); 1:1 (niacin:Lba) ratio): stabilized red color better than control
Redness (a-value) at day 4 (soybean Hb (Lba); niacin:Lba molar ratio 1:1): 4.10c
Redness (a-value) at day 4 (soybean Hb (Lba); niacin:Lba molar ratio 3:1): 5.35b
Redness (a-value) at day 4 (soybean Hb (Lba); niacin:Lba molar ratio 6:1): 5.79a
Compound: O=C(O)c1cccnc1 [niacin, nicotinic acid]
color retention of meat analog ([1]; 2.5 mmol/kg niacin, high oxygen package (80% O2, 20% CO2), 4 days under light display at 1-3° C.): retains a superior color; also recorded: retain a pink color for four days
Tolerable Upper Intake Level (UL) ([3]; European Food Safety Authority): 10 mg/day
Tolerable Upper Intake Level (UL) ([3]; Food and Nutrition Board of the U.S. Institute of Medicine): 35 mg/day

Compound: Imidazole
pKa as an acid ([2]; acidic proton on N-1): 14.5
pKa of the conjugate acid (pKBH+) ([2]; as a base, basic site N-3): approximately 7
